According to patent publication US11046700B2, “Substituted imidazo[1,2-a]pyrazines, pyrazolo[1,5-c]pyrimidines, pyrazolo[1,5-a]pyridines, and purines for the treatment of schistosomiasis” (Merck Patent GmbH, priority 2017, dated 2021):
Each block holds one compound with its values, some of them ahead of it.

Tests used:
[1] = system: S. mansoni juvenile worms; assay: Mouse infection model, juvenile worms, oral treatment day 25 post infection, worm recovery; format: in vivo, Schistosoma mansoni; details: mice
Description: (§1) Methods for the subcutaneous infection of mice and subsequent worm recovery were as described in Mansour et al (2016) except that infection was with 150 cercariae and the perfusion medium was citrate saline (0.9% sodium chloride, 1.5% tri-sodium citrate). Perfusion was carried out 8 days (adult infections) or 15 days (juvenile infections) after treatment. Perfuseate was collected into 30 mL universal tubes. RBC (Red Blood Cells) were removed by allowing the perfuseate to settle for 10 min, removal of most of the supernatant and washing once as above with 10 mL perfusion medium. A drop of dilute aqueous saponin solution was added to lyse any remaining RBC and the worm suspension poured into a grid-marked small petri dish. The tube was rinsed out into the petri dish and examined for any remaining worms. Worms were counted using a dissecting microscope. The mouse livers removed after perfusion were squashed between two thick glass plates and examined visually and any remaining worms added to those counted as above.
(§2) For testing efficacy against the juvenile worms, treatment was on day 25 post infection and for testing against the adult worms on day 42 post infection. Drugs were suspended in 7% Tween-80/3% Ethanol/double distilled water and drug dispersal was facilitated by vortexing and using a sonicating water bath (Formulation F1). Alternatively, drugs were suspended in 10% DMSO, 90% double distilled water containing 50 mM Na2HPO4 with 0.5% Tween-80 by first dissolving or suspending the drug in DMSO then adding the DMSO solution/suspension to the aqueous solution (Formulation F2). In a further set of conditions, drugs were first dissolved in DMSO, then diluted with corn oil to give a 5% DMSO+drug solution/suspension (Formulation F3)
(§3) The drug solution/suspensions were given by oral gavage at the rate of 10 ml/kg. Positive controls (artemether for juvenile worms and praziquantel for adult worms) were used in each experiment.

[2] = system: S. mansoni adult worms; assay: In vitro assay, S. mansoni adult worms; format: cell-based; details: Schistosoma mansoni; S. mansoni adult worms, in vitro; read-out: (a) Adult
[3] = system: S. mansoni juvenile worms; assay: In vitro assay, S. mansoni juvenile worms; format: cell-based; details: Schistosoma mansoni; S. mansoni juvenile worms, in vitro; read-out: (b) Juvenile
[4] = system: S. haemotobium adult worms; assay: In vitro assay, S. haemotobium adult worms; format: cell-based; details: read-out: (c) S. haemotobium
Description: (§4) The routine biological assays using adult or juvenile worms and cytotoxicity assays using MRC-5 cells have been disclosed previously in Mansour, N. R., et al. (2016). “High Throughput Screening Identifies Novel Lead Compounds with Activity against Larval, Juvenile and Schistosoma mansoni PLoS Negl Trap Dis 10(4): e0004659. Cytotoxicity assays using the HepG2 cell line were carried out as described in Molecular Diversity (2015) 19, 251-261.
(c) S. haemotobium adult worms

[5] = system: MRC-5 cells; assay: Cytotoxicity against human MRC-5 cell line; format: cell-based
Description: as §4
(d) Cytotoxicity against human MRC-5 cell line

[6] = system: HepG2 cell line; assay: Cytotoxicity against human HepG2 cell lines; format: cell-based
[7] = system: S. mansoni adult worms; assay: Mouse infection model, adult worms, oral treatment day 42 post infection, worm recovery; format: in vivo, Schistosoma mansoni; details: mice
Description: as §1, §2, §3

[8] = oral 400 mg/kg, Formulation F1, negative control 33.0 ± 7.2
[9] = oral 400 mg/kg, Formulation F1, negative control 33.2 ± 9.09
[10] = oral 25 mg/kg, Formulation F1, negative control 33.2 ± 9.09
[11] = oral 25 mg/kg, Formulation F2, negative control 33.2 ± 9.09
[12] = oral 50 mg/kg, Formulation F1, negative control 33.0 ± 7.2
[13] = oral 200 mg/kg, Formulation F1, negative control 38.8 ± 5.4
[14] = oral 5 mg/kg, Formulation F2, negative control 33.2 ± 9.09
[15] = oral 6.25 mg/kg, Formulation F3, negative control 32.6 ± 10.6
[16] = oral 6.25 mg/kg, Formulation F1, negative control 33.8 ± 4.1
[17] = oral 12.5 mg/kg, Formulation F1, negative control 33.8 ± 4.1
[18] = oral 50 mg/kg, Formulation F3, negative control 32.8 ± 14
[19] = oral 50 mg/kg, Formulation F1, negative control 33.8 ± 4.1
[20] = oral 100 mg/kg, Formulation F1, negative control 33.8 ± 4.1
[21] = oral 400 mg/kg, Formulation F1, negative control 33.8 ± 4.1
[22] = oral 400 mg/kg, Formulation F1, negative control 38.8 ± 5.4
[23] = oral 50 mg/kg, Formulation F1, negative control 33.2 ± 9.09

Structure (SMILES): CO[C@H]1O[C@@H]2O[C@@]3(C)CC[C@H]4[C@H](C)CC[C@@H]([C@H]1C)[C@@]24OO3 [Artemether, artemether, reference compound]
Mean worm recovery [1, 8]: 8.2 ± 4.1
Percent worm reduction [1, 8]: 75%
Mean worm recovery [1, 9]: 8.6 ± 4.16
Percent worm reduction [1, 9]: 74%

IC50 [2]: 58 nM
IC50 [3]: 13 nM
IC50 [4]: < 195 nM
Structure (SMILES): COc1ccc(-c2c(C(C)C)nc3cnc(-c4cccc(C(F)(F)F)c4)cn23)cc1O [Example 1, 2-methoxy-5-[2-(propan-2-yl)-6-[3-(trifluoromethyl)phenyl]imidazo[1,2-a]pyrazin-3-yl]phenol]
(d) Cytotox MRC-5 [5]: 21.8 µM
(e) Cytotox HepG2 [6]: >11.1 µM

IC50 [2]: 47 nM
IC50 [3]: 19 nM
Structure (SMILES): CC(C)c1nc2cnc(-c3ccc(F)c(C(F)(F)F)c3)cn2c1-c1ccc2[nH]ncc2c1F [Example 2, 4-fluoro-5-{6-[4-fluoro-3-(trifluoromethyl)phenyl]-2-(propan-2-yl)imidazo[1,2-a]pyrazin-3-yl}-1H-indazole]
(e) Cytotox HepG2 [6]: 10.4 µM
Mean worm recovery [1, 10]: 7.2 ± 3.9
Percent worm reduction [1, 10]: 78%
Mean worm recovery [1, 11]: 4.4 ± 3.91
Percent worm reduction [1, 11]: 87%
Mean worm recovery [1, 12]: 4.0 ± 4.1
Percent worm reduction [1, 12]: 88%

IC50 [2]: 290 nM
IC50 [3]: 480 nM
Structure (SMILES): Cc1nc2cnc(-c3cccc(C(F)(F)F)c3)cn2c1-c1ccc(O)cc1F [Example 6, 3-fluoro-4-[2-methyl-6-[3-(trifluoromethyl)phenyl]imidazo[1,2-a]pyrazin-3-yl]phenol]
(d) Cytotox MRC-5 [5]: 15.8 µM

IC50 [2]: 90 nM
IC50 [3]: 82 nM
Structure (SMILES): CCc1nc2cnc(-c3cccc(C(F)(F)F)c3)cn2c1-c1ccc(OC)c(O)c1 [Example 7, 2-methoxy-5-[2-ethyl-6-[3-(trifluoromethyl)phenyl]imidazo[1,2-a]pyrazin-3-yl]phenol]
(d) Cytotox MRC-5 [5]: >50 µM
(e) Cytotox HepG2 [6]: >30 µM

IC50 [2]: 76 nM
IC50 [3]: 79 nM
Structure (SMILES): CC(C)c1nc2cnc(-c3cccc(C(F)(F)F)c3)cn2c1-c1ccc(O)cc1F [Example 9, 3-fluoro-4-[2-(propan-2-yl)-6-[3-(trifluoromethyl)phenyl]imidazo[1,2-a]pyrazin-3-yl]phenol]
(d) Cytotox MRC-5 [5]: 13.7 µM
(e) Cytotox HepG2 [6]: 9 µM

IC50 [2]: < 780 nM
IC50 [3]: 530 nM
Structure (SMILES): Cc1nc2cnc(-c3ccc(F)c(C(F)(F)F)c3)cn2c1-c1ccc(O)cc1F [Example 10, 3-fluoro-4-[2-methyl-6-[4-fluoro-3-(trifluoromethyl)phenyl]imidazo[1,2-a]pyrazin-3-yl]phenol]
(d) Cytotox MRC-5 [5]: 14.4 µM
(e) Cytotox HepG2 [6]: >11.1 µM

IC50 [2]: 120 nM
IC50 [3]: 220 nM
IC50 [4]: 40 nM
Structure (SMILES): Cc1nc2cnc(-c3ccc(F)c(C(F)(F)F)c3)cn2c1-c1c(F)cc(O)cc1F [Example 16, 3,5-difluoro-4-[2-methyl-6-[4-fluoro-3-(trifluoromethyl)phenyl]imidazo[1,2-a]pyrazin-3-yl]phenol]
(e) Cytotox HepG2 [6]: 7.6 µM

IC50 [2]: 44 nM
IC50 [3]: 26 nM
IC50 [4]: 23 nM
Structure (SMILES): CC(C)c1nc2cnc(-c3ccc(F)c(C(F)(F)F)c3)cn2c1-c1c(F)cc(O)cc1F [Example 17, 3,5-difluoro-4-[2-(propan-2-yl)-6-[4-fluoro-3-(trifluoromethyl)phenyl]imidazo[1,2-a]pyrazin-3-yl]phenol]
(e) Cytotox HepG2 [6]: 7.1 µM
Mean worm recovery [7, 13]: 0.3 ± 0.8
Percent worm reduction [7, 13]: 99%
Mean worm recovery [1, 12]: 20.6 ± 8.5
Mean worm recovery ([1]; oral 200 mg/kg, Formulation F1, negative control 33.0 ± 7.2): 5.2 ± 3.1

IC50 [2]: 430 nM
IC50 [3]: 530 nM
IC50 [4]: 150 nM
Structure (SMILES): COc1cc(-c2c(C(C)C)nc3cnc(-c4cccc(C(F)(F)F)c4)cn23)cc2cn[nH]c12 [Example 22, 7-methoxy-5-{2-(propan-2-yl)-6-[3-trifluoromethylphenyl]imidazo[1,2-a]pyrazin-3-yl}-1H-indazole]

IC50 [2]: 30 nM
IC50 [3]: 28 nM
Structure (SMILES): Fc1c(-c2c(C(F)(F)F)nc3cnc(-c4cccc(C(F)(F)C(F)(F)F)c4)cn23)ccc2[nH]ncc12 [Example 29, 4-fluoro-5-{2-trifluoromethyl-6-[3-(pentafluoroethyl)phenyl]imidazo[1,2-a]pyrazin-3-yl}-1H-indazole]
(e) Cytotox HepG2 [6]: 8.9 µM
Mean worm recovery [1, 14]: 14.8 ± 6.61
Percent worm reduction [1, 14]: 55%
Mean worm recovery [1, 15]: 2.0 ± 2.6
Percent worm reduction [1, 15]: 94%
Mean worm recovery [1, 11]: 4 ± 1.41
Percent worm reduction [1, 11]: 88%

IC50 [2]: 63 nM
Structure (SMILES): Fc1ccc(-c2cn3c(-c4ccc5[nH]ncc5c4F)c(C4CC4)nc3cn2)cc1C(F)(F)F [Example 32]
(e) Cytotox HepG2 [6]: 16.1 µM
Mean worm recovery [1, 12]: 29.0 ± 7.9
Percent worm reduction [1, 12]: 12%

IC50 [2]: 69 nM
IC50 [3]: 88 nM
Structure (SMILES): Oc1cc(F)c(-c2c(C3CC3)nc3cnc(-c4ccc(F)c(C(F)(F)F)c4)cn23)c(F)c1 [Example 34, 4-(2-cyclopropyl-6-(4-fluoro-3-(trifluoromethyl)phenyl)imidazo[1,2-a]pyrazin-3-yl)-3,5-difluorophenol]
(e) Cytotox HepG2 [6]: 8.9 µM
Mean worm recovery [1, 12]: 24.8 ± 7.4
Percent worm reduction [1, 12]: 25%

IC50 [3]: 21 nM
Structure (SMILES): CCc1nc2cnc(-c3ccc(F)c(C(F)(F)C(F)(F)F)c3)cn2c1-c1c(F)cc(O)cc1F [Example 45, 4-{2-ethyl-6-[4-fluoro-3-(1,1,2,2,2-pentafluoroethyl)phenyl]imidazo[1,2-a]pyrazin-3-yl}-3,5-difluorophenol]
Mean worm recovery [1, 10]: 31.8 ± 5.76
Percent worm reduction [1, 10]: 4%

IC50 [3]: 60 nM
Structure (SMILES): Fc1ccc(-c2cn3c(-c4ccc5[nH]ncc5c4F)c(C(F)(F)F)nc3cn2)cc1C(F)(F)F [Example 50, 3-(4-Fluoro-1H-indazol-5-yl)-6-(4-fluoro-3-trifluoromethylphenyl)-2-trifluoromethyl-imidazo[1,2-a]pyrazine]
Mean worm recovery [7, 16]: 7.4 ± 8.1
Percent worm reduction [7, 16]: 78%
Mean worm recovery [7, 17]: 0.2
Percent worm reduction [7, 17]: 99%
Mean worm recovery [1, 15]: 17.6 ± 12.0
Percent worm reduction [1, 15]: 46%
Mean worm recovery [1, 10]: 0.8 ± 0.84
Percent worm reduction [1, 10]: 98%

IC50 [2]: 11 nM
IC50 [3]: 10 nM
IC50 [4]: < 6 nM
Structure (SMILES): Fc1ccc(-c2cn3c(-c4ccc5[nH]ncc5c4F)c(C(F)(F)F)nc3cn2)cc1C(F)(F)C(F)(F)F [Example 63, 3-(4-Fluoro-1H-indazol-5-yl)-6-(4-fluoro-3-pentafluoroethyl-phenyl)-2-trifluoromethyl-imidazo[1,2-a]pyrazine]
(e) Cytotox HepG2 [6]: 11.7 µM
Mean worm recovery [1, 15]: 0.6 ± 1.0
Percent worm reduction [1, 15]: 98%

IC50 [2]: 2 nM
IC50 [3]: 2 nM
Structure (SMILES): CC(C)c1cc(-c2cn3c(-c4ccc5[nH]ncc5c4F)c(C(F)(F)F)nc3cn2)ccc1F [Example 67, 3-(4-Fluoro-1H-indazol-5-yl)-6-(4-fluoro-3-isopropyl-phenyl)-2-trifluoromethyl-imidazo[1,2-a]pyrazine]
(e) Cytotox HepG2 [6]: 17.0 µM
Mean worm recovery [1, 18]: 0
Percent worm reduction [1, 18]: 100%

Structure (SMILES): O=C(C1CCCCC1)N1CC(=O)N2CCc3ccccc3C2C1 (stereo not drawn) [Praziquantel, praziquantel]
Mean worm recovery [7, 19]: 29.8 ± 8.4
Percent worm reduction [7, 19]: 13%
Mean worm recovery [7, 20]: 12.2 ± 6.3
Percent worm reduction [7, 20]: 64%
Mean worm recovery [7, 21]: 2.6 ± 1.5
Percent worm reduction [7, 21]: 92%
Mean worm recovery [7, 22]: 2.3 ± 1.7
Percent worm reduction [7, 22]: 94%
Mean worm recovery [1, 23]: 26.2 ± 9.44
Percent worm reduction [1, 23]: 21%
